Assay results from patent publication US9873709B2 (priority 2013, dated 2018).

System: JAK1-dependent STAT6 phosphorylation downstream of IL-13 stimulation in TF-1 human erythroleukemia cells
Test: cells
Details: TF-1, read-out: IL-13-pSTAT6 IC50

Row | SMILES | IC50 [µM]
1 | O=C(CCC(F)(F)F)N1CC=C(c2cccn3nc(Nc4ccc(C(=O)N5CCC6(CCNC6)C5)cc4)nc23)CC1 (stereo not shown) [Example 2-28, 1-[4-[2-[4-(2,7-diazaspiro[4.4]nonane-2-carbonyl)anilino]-[1,2,4]triazolo[1,5-a]pyridin-8-yl]-3,6-dihydro-2H-pyridin-1-yl]-4,4,4-trifluoro-butan-1-one] | 0.207
2 | O=C(CCC(F)(F)F)N1CC=C(c2cccn3nc(Nc4ccc(C(=O)N5CCC6(CCCN6)CC5)cc4)nc23)CC1 [Example 2-198, 1-[4-[2-[4-(1,8-diazaspiro[4.5]decane-8-carbonyl)anilino]-[1,2,4]triazolo[1,5-a]pyridin-8-yl]-3,6-dihydro-2H-pyridin-1-yl]-4,4,4-trifluoro-butan-1-one] | 0.0539
3 | O=C(CCC(F)(F)F)N1CC=C(c2cccn3nc(Nc4ccc(C(=O)N5CCN6CCCC6C5)cc4)nc23)CC1 (stereo not shown) [Example 2-200, 1-[4-[2-[4-(3,4,6,7,8,8a-hexahydro-1H-pyrrolo[1,2-a]pyrazine-2-carbonyl)anilino]-[1,2,4]triazolo[1,5-a]pyridin-8-yl]-3,6-dihydro-2H-pyridin-1-yl]-4,4,4-trifluoro-butan-1-one] | 0.0041
4 | CC1CN(C(=O)c2ccc(Nc3nc4c(C5=CCN(C(=O)CCC(F)(F)F)CC5)cccn4n3)cc2)CCN1 (stereo not shown) [Example 2-196, 4,4,4-trifluoro-1-[4-[2-[4-(3-methylpiperazine-1-carbonyl)anilino]-[1,2,4]triazolo[1,5-a]pyridin-8-yl]-3,6-dihydro-2H-pyridin-1-yl]butan-1-one] | 0.0299
5 | CN(C)C(=O)C1CN(C(=O)c2ccc(Nc3nc4c(N5CCC(O)(c6ccc(Cl)cc6)CC5)cccn4n3)cc2)C1 [Example 1-164, 1-[4-[[8-[4-(4-chlorophenyl)-4-hydroxy-1-piperidyl]-[1,2,4]triazolo[1,5-a]pyridin-2-yl]amino]benzoyl]-N,N-dimethyl-azetidine-3-carboxamide] | 0.0108
6 | CN(Cc1cccnc1)C(=O)c1ccc(Nc2nc3c(C4=CCN(C(=O)CCC(F)(F)F)CC4)cccn3n2)cc1 [Example 2-402, N-methyl-N-(3-pyridylmethyl)-4-[[8-[1-(4,4,4-trifluorobutanoyl)-3,6-dihydro-2H-pyridin-4-yl]-[1,2,4]triazolo[1,5-a]pyridin-2-yl]amino]benzamide] | 0.0056
7 | CN1CCC(N(C)C(=O)c2ccc(Nc3nc4c(C5=CCN(C(=O)CCC(F)(F)F)CC5)cccn4n3)cc2)C1 (stereo not shown) [Example 2-267, N-methyl-N-(1-methylpyrrolidin-3-yl)-4-[[8-[1-(4,4,4-trifluorobutanoyl)-3,6-dihydro-2H-pyridin-4-yl]-[1,2,4]triazolo[1,5-a]pyridin-2-yl]amino]benzamide] | 0.0087
8 | CCOC(=O)N1CC=C(c2cccn3nc(Nc4ccc(C(=O)N5CC6(CNC6)C5)cc4)nc23)CC1 [Example 2-77, ethyl 4-[2-[4-(2,6-diazaspiro[3.3]heptane-2-carbonyl)anilino]-[1,2,4]triazolo[1,5-a]pyridin-8-yl]-3,6-dihydro-2H-pyridine-1-carboxylate] | 0.134
9 | O=C(CCC(F)(F)F)N1CC=C(c2cccn3nc(Nc4ccc(C(=O)N5C[C@H]6CNC[C@H]6C5)cc4)nc23)CC1 [Example 2-321, 1-[4-[2-[4-[(3aR,6aS)-2,3,3a,4,6,6a-hexahydro-1H-pyrrolo[3,4-c]pyrrole-5-carbonyl]anilino]-[1,2,4]triazolo[1,5-a]pyridin-8-yl]-3,6-dihydro-2H-pyridin-yl]-4,4,4-trifluoro-butan-1-one] | 0.25
10 | O=C(CCC(F)(F)F)N1CC=C(c2cccn3nc(Nc4ccc(C(=O)N5CCCN(c6ccncc6)CC5)cc4)nc23)CC1 [Example 2-278, 4,4,4-trifluoro-1-[4-[2-[4-[4-(4-pyridyl)-1,4-diazepane-1-carbonyl]anilino]-[1,2,4]triazolo[1,5-a]pyridin-8-yl]-3,6-dihydro-2H-pyridin-1-yl]butan-1-one] | 0.0393
